pIC50: −log10 of the molar value.
Biological target: T1, human PRMT1 (Homo sapiens, UniProt Q99873)
T1 construct: GST-tagged PRMT1; made in house; host or cells: High Five insect cells (baculovirus, pFastBacI)
Experiment: PRMT1 Biochemical Assay
Settings: peptide substrate, 3H-SAM Flashplate assay
Text: S-adenosylmethionine (SAM), S-adenosylhomocysteine (SAH), bicine, Tween20, dimethylsulfoxide (DMSO), bovine skin gelatin (BSG), and Tris(2-carboxyethyl)phosphine hydrochloride solution (TCEP) were purchased from Sigma-Aldrich at the highest level of purity possible. ^3H-SAM was purchase from American Radiolabeled Chemicals with a specific activity of 80 Ci/mmol. 384-well streptavidin Flashplates were purchased from PerkinElmer.
Peptide representative of human histone H4 residues 36-50 was synthesized with an N-terminal linker-affinity tag motif and a C-terminal amide cap by 21st Century Biochemicals. The peptide was purified by high-performance liquid chromatography (HPLC) to greater than 95% purity and confirmed by liquid chromatography mass spectrometry (LC-MS). The sequence was Biot-Ahx-[…]-amide (SEQ ID NO.: 1).
Full-length human PRMT1 isoform 1 (NM_001536.5) transcript clone was amplified from an HEK 293 cDNA library, incorporating flanking 5′ sequence encoding a FLAG tag ([…]) (SEQ ID NO.:2) fused directly to Met 1 of PRMT1. The amplified gene was subcloned into pFastBacI (Life Technologies) modified to encode an N-terminal GST tag and a TEV cleavage sequence ([…] […] […] […])(SEQ ID NO.:3) fused to Asp of the Flag tag of PRMT1.
Recombinant baculovirus were generated according to Bac-to-Bac kit instructions (Life Technologies). Protein over-expression was accomplished by infecting exponentially growing High Five insect cell culture at 1.5×10^6 cell/ml with 1:100 ratio of virus. Infections were carried out at 27° C. for 48 hours, harvested by centrifugation, and stored at −80° C. for purification.
GST-tagged PRMT1 was eluted with 50 mM Tris, 2 mM glutathione, pH 7.8, dialysed in buffer A and concentrated to 1 mg/mL. The purity of recovered protein was 73%. Reference: Wasilko, D. J. and S. E. Lee: “TIPS: titerless infected-cells preservation and scale-up” Bioprocess J., 5 (2006), pp. 29-32.
General Procedure for PRMT1 Enzyme Assays on Peptide Substrates.
The assays were all performed in a buffer consisting of 20 mM Bicine (pH=7.6), 1 mM TCEP, 0.005% BSG, and 0.002% Tween 20, prepared on the day of use. Compounds in 100% DMSO (1 ul) were spotted into a polypropylene 384-well V-bottom plates (Greiner) using a Platemate Plus outfitted with a 384-channel head (Thermo Scientific). DMSO (1 ul) was added to Columns 11, 12, 23, 24, rows A-H for the maximum signal control and 1 ul of SAH, a known product and inhibitor of PRMT1, was added to columns 11, 12, 23, 24, rows I-P for the minimum signal control. A cocktail (40 ul) containing the PRMT1 enzyme was added by Multidrop Combi (Thermo-Fisher). The compounds were allowed to incubate with PRMT1 for 30 min at room temperature, then a cocktail (10 ul) containing SAM and peptide was added to initiate the reaction (final volume=51 ul). The final concentrations of the components were as follows: PRMT1 was 0.5 nM, ^3H-SAM was 200 nM, non-radiolabeled SAM was 1.5 uM, peptide was 20 nM, SAH in the minimum signal control wells was 1 mM, and the DMSO concentration was 2%. The assays were stopped by the addition of non-radiolabeled SAM (10 ul) to a final concentration of 300 uM, which dilutes the ^3H-SAM to a level where its incorporation into the peptide substrate is no longer detectable. 50 ul of the reaction in the 384-well polypropylene plate was then transferred to a 384-well Flashplate and the biotinylated peptides were allowed to bind to the streptavidin surface for at least 1 hour before being washed once with 0.1% Tween20 in a Biotek ELx405 plate washer. The plates were then read in a PerkinElmer TopCount plate reader to measure the quantity of ^3H-labeled peptide bound to the Flashplate surface, measured as disintegrations per minute (dpm) or alternatively, referred to as counts per minute (cpm).
Where dpm=disintegrations per minute, cmpd=signal in assay well, and min and max are the respective minimum and maximum signal controls. […]

T1 sequence (Q99873 with tags, fused parts or gaps): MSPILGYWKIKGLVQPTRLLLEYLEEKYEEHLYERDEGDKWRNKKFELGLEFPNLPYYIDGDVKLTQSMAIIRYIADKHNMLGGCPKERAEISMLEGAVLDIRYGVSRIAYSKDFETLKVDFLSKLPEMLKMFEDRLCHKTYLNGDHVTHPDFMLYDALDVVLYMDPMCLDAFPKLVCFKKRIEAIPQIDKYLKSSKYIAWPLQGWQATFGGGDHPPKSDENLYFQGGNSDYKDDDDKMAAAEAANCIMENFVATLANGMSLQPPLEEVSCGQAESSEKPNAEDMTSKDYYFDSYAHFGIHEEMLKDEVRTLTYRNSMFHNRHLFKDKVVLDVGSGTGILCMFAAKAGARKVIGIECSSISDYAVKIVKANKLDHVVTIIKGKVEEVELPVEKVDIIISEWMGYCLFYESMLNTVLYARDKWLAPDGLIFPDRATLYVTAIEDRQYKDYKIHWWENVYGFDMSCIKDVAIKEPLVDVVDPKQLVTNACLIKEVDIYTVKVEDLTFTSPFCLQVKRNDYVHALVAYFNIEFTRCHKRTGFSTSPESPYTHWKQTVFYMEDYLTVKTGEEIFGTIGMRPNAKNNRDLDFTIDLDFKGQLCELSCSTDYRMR

First: Cc1cncc(-c2n[nH]cc2CN(C)CCN)c1 [Compound 6]
Second: CN(CCN)Cc1c[nH]nc1-c1cncc(Cl)c1 [Compound 19]
The pIC50 of the first is lower: ≤ 5.00 for the first, ≥ 7.00 for the second.

`CN(CCN)Cc1c[nH]nc1-c1ccc(NCc2ccccc2)nc1` [Compound 25] and `CN(CCN)Cc1c[nH]nc1-c1ccc(N(C)Cc2ccccc2)nc1` [Compound 23] cannot be ordered by pIC50: ≥ 7.00 for the first, ≥ 7.00 for the second.

`CNCCN(C)Cc1c[nH]nc1-c1ccc(N(C)CCC(C)C)nc1` [Compound 30] and `CNCCN(C)Cc1c[nH]nc1-c1ccc(N(C)CC(C)C)nc1` [Compound 32, N^1-((3-(6-(isobutyl(methyl)amino)pyridin-3-yl)-1H-pyrazol-4-yl)methyl)-N^1,N^2-dimethylethane-1,2-diamine] cannot be ordered by pIC50: ≥ 7.00 for the first, ≥ 7.00 for the second.

`COc1cc(-c2n[nH]cc2CN(C)CCN)ccn1` [Compound 11] and `COc1ccc(-c2n[nH]cc2CN(C)CCN)cn1` [Compound 5] fall in the same range of pIC50: 6.00 to 7.00 for the first, 6.00 to 7.00 for the second.

`COc1ncc(Cl)cc1-c1n[nH]cc1CN(C)CCN` [Compound 14] and `COc1cc(-c2n[nH]cc2CN(C)CCN)c(Cl)cn1` [Compound 12] fall in the same range of pIC50: 5.52 to 6.00 for the first, 5.52 to 6.00 for the second.

Compared with `CN(CCN)Cc1c[nH]nc1-c1cncc(S(C)(=O)=O)c1` [Compound 4], `CN(CCN)Cc1c[nH]nc1-c1cncc(F)c1` [Compound 7] is higher in pIC50: 5.52 to 6.00 for the first, ≥ 7.00 for the second. The second is the more potent here.

`CC(C)CNc1ccc(-c2n[nH]cc2CN(C)CCN)cn1` [Compound 26] and `CC(C)CN(C)c1ccc(-c2n[nH]cc2CN(C)CCN)cn1` [Compound 21] cannot be ordered by pIC50: ≥ 7.00 for the first, ≥ 7.00 for the second.

`CN(CCN)Cc1c[nH]nc1-c1ccncc1` [Compound 9] and `CN(CCN)Cc1c[nH]nc1-c1cccnc1` [Compound 8] cannot be ordered by pIC50: ≥ 7.00 for the first, 6.00 to 7.00 for the second.

`CN(CCN)Cc1c[nH]nc1-c1cncc(C#N)c1` [Compound 18] and `CN(CCN)Cc1c[nH]nc1-c1ccc(C#N)nc1` [Compound 28, 5-(4-(((2-aminoethyl)(methyl)amino)methyl)-1H-pyrazol-3-yl)picolinonitrile] cannot be ordered by pIC50: 6.00 to 7.00 for the first, ≥ 7.00 for the second.

`CNCCN(C)Cc1c[nH]nc1-c1ccc(OCC(C)C)nc1` [Compound 35, N^1-((3-(6-iso-butoxypyridin-3-yl)-1H-pyrazol-4-yl)methyl)-N^1,N^2-dimethylethane-1,2-diamine] and `CNCCN(C)Cc1c[nH]nc1-c1ccc(N(C)C(C)C)nc1` [Compound 33, N^1-((3-(6-(isopropyl(methyl)amino)pyridin-3-yl)-1H-pyrazol-4-yl)methyl)-N^1,N^2-dimethylethane-1,2-diamine] cannot be ordered by pIC50: ≥ 7.00 for the first, ≥ 7.00 for the second.

`Cc1cc(-c2n[nH]cc2CN(C)CCN)cnc1Cl` [Compound 10] and `Cc1ccncc1-c1n[nH]cc1CN(C)CCN` [Compound 17] cannot be ordered by pIC50: ≥ 7.00 for the first, 6.00 to 7.00 for the second.

`CCN(CCC(C)C)c1ccc(-c2n[nH]cc2CN(C)CCNC)cn1` [Compound 34, N^1-((3-(6-(ethyl(isopentyl)amino)pyridin-3-yl)-1H-pyrazol-4-yl)methyl)-N^1,N^2-dimethylethane-1,2-diamine] and `CCN(CC(C)C)c1ccc(-c2n[nH]cc2CN(C)CCNC)cn1` [Compound 36] cannot be ordered by pIC50: ≥ 7.00 for the first, ≥ 7.00 for the second.

`COc1ncccc1-c1n[nH]cc1CN(C)CCN` [Compound 15] and `COc1ccncc1-c1n[nH]cc1CN(C)CCN` [Compound 16] fall in the same range of pIC50: 6.00 to 7.00 for the first, 6.00 to 7.00 for the second.

First: CN(CCN)Cc1c[nH]nc1-c1ccccn1 [Compound 27]
Second: CN(CCN)Cc1c[nH]nc1-c1cnccc1C(F)(F)F [Compound 29]
The pIC50 of the first is lower: 5.00 to 5.52 for the first, 5.52 to 6.00 for the second. The second is the more potent here.

`CCN(CC)c1ccc(-c2n[nH]cc2CN(C)CCN)cn1` [Compound 24] and `CC(C)Oc1ccc(-c2n[nH]cc2CN(C)CCN)cn1` [Compound 22] cannot be ordered by pIC50: 6.00 to 7.00 for the first, ≥ 7.00 for the second.

`CN(CCN)Cc1c[nH]nc1-c1ccc(N2CCOCC2)nc1` [Compound 20] and `CN(CCN)Cc1c[nH]nc1-c1ccc(C(F)(F)F)nc1` [Compound 13, N^1-methyl-N^1-((3-(6-(trifluoromethyl)pyridin-3-yl)-1H-pyrazol-4-yl)methyl)ethane-1,2-diamine] cannot be ordered by pIC50: ≥ 7.00 for the first, ≥ 7.00 for the second.

In the case of `CNCCN(C)Cc1c[nH]nc1-c1ccc(N(CC(C)C)CC(C)C)nc1` [Compound 31], the pIC50 was ≥ 7.00.
